pIC50: −log10 of the molar value. In brackets after ≈: the same amount, converted by molar mass. Read-outs that look alike come from different tables or passages of the source.
Experiments:
[1] = test system: Mycobacterium smegmatis (mc^2155); test: Antimycobacterial assay, turbidometric MIC (OD 600 nm); assay type: cell-based; conditions: Mycolicibacterium smegmatis, read-out: M. smeg MIC
M. smegmatis (MC^2 155) = test: M. smegmatis primary screening, z-score; assay type: cell-based, Mycobacterium smegmatis; conditions: positive controls in primary screening
[2] = test system: Mycobacterium bovis (BCG); test: microbe, parasite or virus in culture; assay type: cell-based; conditions: Mycobacterium tuberculosis variant bovis BCG, 96 h, read-out: BCG MIC
Mycobacterium = test: Minimum Bactericidal Concentration (MBC) test, CFU approach; assay type: cell-based; conditions: for MBC compared with MIC: against the test organisms of the study; for Bacteriocidal/Bacteriostatic: from comparison of MIC and MBC
[3] = test system: A549 (human lung epithelial cells); test: Sulforhodamine B (SRB) cytotoxicity assay; assay type: cell-based; conditions: 48 h
M. tuberculosis (H37Rv) = M. tuberculosis (H37Rv) inhibition assay, Alamar Blue MIC; assay type: cell-based; conditions: Mycobacterium tuberculosis, 168 h, six days + 24 h
[4] = test system: HepG2 (human hepatoma cells); test: Sulforhodamine B (SRB) cytotoxicity assay; assay type: cell-based; conditions: 48 h
SF-264 = test system: SF-264; set-up: method as in PMID 18507473; conditions: cited from earlier work
MCF-7 = test system: MCF-7; set-up: method as in PMID 18507473; conditions: cited from earlier work
NCI-H460 = test system: NCI-H460; set-up: method as in PMID 18507473; conditions: cited from earlier work
[5] = test system: Campylobacter fetus subsp. jejuni; conditions: cited from earlier work
[6] = MC^2155, lowest concentration with 90% growth inhibition, 32 hours

Molecule	MIC ([1]; MC^2155, 32 h) [µM]	mean z-score (M. smegmatis (MC^2 155))	MIC [2] [µM]	MIC [1, 6] [µM]	MBC compared with MIC (Mycobacterium)	Bacteriocidal/Bacteriostatic (Mycobacterium)	pIC50 [3]	MIC (M. tuberculosis (H37Rv)) [µM]	pIC50 [4]	pIC50 (SF-264)	pIC50 (MCF-7)	pIC50 (NCI-H460)	MBC [5] [mg/L]	MIC [5] [mg/L]
CO[C@H]1/C=C/O[C@@]2(C)Oc3c(C)c(O)c4c(O)c(c(/C=N/N5CCN(C)CC5)c(O)c4c3C2=O)NC(=O)/C(C)=C\C=C\[C@H](C)[C@H](O)[C@@H](C)[C@@H](O)[C@@H](C)[C@H](OC(C)=O)[C@@H]1C [Rifampicin, reference compound]	2.43 (≈ 2 µg/mL)	4.4												
Nc1ccc(C(=O)CC2(O)c3ccccc3-n3c2nc2ccccc2c3=O)cc1 (stereo not shown) [Compound H136]			11.4 (≈ 4.37 µg/mL)	42.5 (≈ 16.3 µg/mL)	MBC values equivalent to their MIC values	bactericidal activity	3.49	1.6	3.44					
CCSc1nsc(NC(=O)Nc2ccc(C(F)(F)F)cc2)n1 [Compound H94]			12.7 (≈ 4.42 µg/mL)	25.4 (≈ 8.83 µg/mL)		Bacteriostatic	3.35	6.25	3.22					
Cc1nc(C)c(C(=O)N(c2cccc(C)c2C)C(C(=O)NC2CCCCC2)c2ccccc2)s1 (stereo not shown) [Compound H85]			11.5 (≈ 5.47 µg/mL)	25.1 (≈ 12 µg/mL)		Bacteriostatic	3.30	12.5	3.10					
N#Cc1ccc(C(=O)CC2(O)c3ccccc3-n3c2nc2ccccc2c3=O)cc1 (stereo not shown) [Compound H27]			6.58 (≈ 2.59 µg/mL)	12.8 (≈ 5.05 µg/mL)		Bacteriostatic	3.05	1.56	3.35					
NNC(=O)c1ccncc1 [Isoniazid, reference compound]	11 (≈ 1.51 µg/mL)	4.9												
Nc1ccc(C(=O)CSc2nnc3c(n2)CCCC3)cc1 [Compound H134]			10.9 (≈ 3.27 µg/mL)	22.7 (≈ 6.82 µg/mL)		Bacteriostatic	3.37	12.5	3.43					
Cc1ccc(C)c(Cn2nnc3c(O)nc(C4CCCN(C(=O)c5ccc(C(C)(C)C)cc5)C4)nc32)c1 (stereo not shown) [Compound H126]			23.8 (≈ 11.9 µg/mL)	30.6 (≈ 15.3 µg/mL)		Bacteriostatic	3.43	12.5	3.45					
COc1cc2c(cc1NC(=O)N1CCCCC1c1cccnc1)oc1ccccc12 (stereo not shown) [Compound H15]			12 (≈ 4.83 µg/mL)	42 (≈ 16.9 µg/mL)		Bacteriostatic	3.28	12.5	3.29					
Cc1ccc(-c2nc3ccccc3s2)cc1 [Compound H117]			14.9 (≈ 3.36 µg/mL)	26.8 (≈ 6.04 µg/mL)		Bacteriostatic	3.32	12.5	3.39					
COc1cccc2c1C(=O)c1c(O)c3c(c(O)c1C2=O)C[C@@](O)(C(=O)CO)C[C@@H]3O[C@H]1C[C@H](N)[C@H](O)[C@H](C)O1 [Doxorubicin, reference compound]							5.28		5.34					
O=C(CSc1nnc(COc2ccc(F)cc2)o1)OC1CCCCC1 [Compound H43]			13.5 (≈ 4.96 µg/mL)	52 (≈ 19 µg/mL)		Bacteriostatic	3.48	6.28	3.43					
O=C(CC1(O)c2ccccc2-n2c1nc1ccccc1c2=O)c1ccccc1 (stereo not shown) [Compound H26]			12 (≈ 4.44 µg/mL)	53 (≈ 19.5 µg/mL)	MBC values equivalent to their MIC values	bactericidal activity	3.43	0.4	3.38	< 4.30	< 4.30	< 4.30		
co-trimoxazole													125	31.2
O=C(Cn1c(=O)n(Cc2ccc(F)cc2)c(=O)c2ccccc21)Nc1cc(F)ccc1F [Compound H137]			22.8 (≈ 10 µg/mL)	39.2 (≈ 17.2 µg/mL)		Bacteriostatic	3.41	12.5	3.41					
O=C(CSc1nnc2scc(-c3ccccc3)n12)Nc1ccc(N2CCCC2)cc1 [Compound H127]			14.2 (≈ 6.19 µg/mL)	46.6 (≈ 20.3 µg/mL)		Bacteriostatic	3.39	12.5	3.46					

From PMC4671662, “Identification of New Molecular Entities (NMEs) as Potential Leads against Tuberculosis from Open Source Compound Repository” (PLoS ONE, 2015)
